Common to all, as to assay type: physicochemical
Data set [1] in a line: UV-Vis absorption response of BNGT to pH. The note with it: for maximum absorption wavelength: BNGT 10 μM. Here is the method: Preparing a 1.0×10^−3 mol/L BNGT stock solution with acetonitrile as a solvent, and transferring 100 μL of the BNGT stock solution respectively into three series of 10 mL volumetric flasks; adding 7 mL of deionized water to the first series of volumetric flasks, adding 2 mL of deionized water and 5 ml of acetonitrile to the second series of volumetric flasks, and adding 1 mL of deionized water and 8 ml of acetonitrile to the third series of volumetric flasks; then titrating to the desired pH value respectively with 0.1 M NaOH and 0.1 M HCl aqueous solutions, and finally making up to volume with deionized water to obtain an acetonitrile/water solution of BNGT with different pHs in three solvent systems, the volume ratios of acetonitrile/water in the three solvent systems being 1/99, 1/1 and 8/2, respectively.
Therefore, in the three solvents (acetonitrile/water in a volume ratio of 1/99, 1/1 and 8/2), BNGT could be used as a pH colorimetric switch by means of three ways (a maximum absorption wavelength, absorbance and color).

Data set [2] is described as follows: Effect of coexisting metal ions on BNGT as pH colorimetric switch. The note with it: pH 5.8 and pH 6.0, metal ions 100 μM. Here is the method: In order to understand the interference of common metal ions on BNGT as a pH colorimetric switch, Fe^2+, Fe^3+, Cu^2+, K^+, Na^+, Mg^2+, Ag^+, Zn^2+, Cr^3+, Cd^2+, […], Ni^2+, Mn^2+, Pb^2+, Hg^2+ and Ca^2+ were added to the acetonitrile/water (in a volume ratio of 1/99 (a), 1/1 (b) and 8/2 (c)) solution, and the UV-Vis absorption spectra of the solution before and after the addition of these metal ions were obtained. […]
Second, the effect of coexisting metal ions on the absorbance of the solution at 527 nm, 535 nm and 537 nm was investigated, with the results as shown in FIG. 11; solvent: acetonitrile/water, in a volume ratio of 1/99 (a), 1/1 (b) and 8/2 (c); concentration: BNGT 10 μM, metal ions 100 μM; 1: none, 2: Ca^2+, 3: Mg^2+, 4: Ag^+, 5: Pb^2+, 6: Cu^2+, 7: Mn^2+, 8: Co^2+, 9: Cd^2+, 10: Ni^2+, 11: K^+, 12: Na^+, 13: Fe^3+, 14: Zn^2+, 15: Cr^2+, 16: Hg^2+, 17: Fe^2+; absorption wavelength: 527 nm, 535 nm and 537 nm. […] Therefore, the aforementioned metal ions had little effect on the response of BNGT to pH in terms of enhanced absorbance.

Data set [3] can be described thus: Reversibility of BNGT as pH colorimetric switch. As to conditions: pH alternating between 5.8 and 6.0. The text has this: 1 M HCl and 1 M NaOH were used to make the pH value of the acetonitrile/water (in a volume ratio of 1/99 (a), 1/1 (b) and 8/2 (c)) solution of BNGT alternately change between 5.8 and 6.0, so as to determine the UV-Vis absorption spectrum of the solution.
First, the reversibility of response of the maximum absorption wavelength and color of the solution to pH was investigated, with the results as shown in FIG. 12; solvent: acetonitrile/water, in a volume ratio of 1/99 (a), 1/1 (b) and 8/2 (c); concentration: BNGT 10 μM.
Second, the reversibility of response of the absorbance of BNGT to pH at 527 nm, 535 nm and 537 nm was investigated, with the results as shown in FIG. 13; solvent: acetonitrile/water, in a volume ratio of 1/99 (a), 1/1 (b) and 8/2 (c); concentration: BNGT 10 μM; the maximum absorption wavelengths corresponding to the absorbance of the three solutions were 527 nm, 535 nm and 537 nm, respectively. It can be seen from the figure that the pH value alternated between 5.8 and 6.0, and the absorbance of the acetonitrile/water (in a volume ratio of 1/99 (a), 1/1 (b) and 8/2 (c)) solution of BNGT also changed circularly from small to large at 527 nm, 535 nm and 537 nm, respectively.

Data set [4] is described as follows: Speed of response of BNGT to pH. The note with it: three solvents. The text has this: To investigate the speed of response of BNGT to pH, adding 1 M NaOH aqueous solution to an acetonitrile/water (in a volume ratio of 1/99 (a), 1/1 (b) and 8/2 (c)) solution of BNGT at pH 5.8 to adjust the pH to 6.0; measuring the UV-Vis absorption spectrum of the solution before and after the adjustment, and plotting the maximum absorption wavelength and color over time, with the results as shown in FIG. 8; solvent: acetonitrile/water, in a volume ratio of 1/99 (a), 1/1 (b) and 8/2 (c); concentration: BNGT 10 μM.
The absorbance was plotted against time and the results were shown in FIG. 9; solvent: acetonitrile/water, in a volume ratio of 1/99 (a), 1/1 (b) and 8/2 (c); concentration: BNGT 10 μM; absorption wavelength: 527 nm, 535 nm and 537 nm.

The mark [5] stands for this setting: pH 5.8 to 6.0, acetonitrile/water 1/1.
[6] abbreviates: pH 5.8 to 6.0, acetonitrile/water 1/99.
[7] abbreviates: pH 5.8 to 6.0, acetonitrile/water 8/2.

For `CCCCN1C(=O)c2cccc3c(NN=CC=NC(CO)(CO)CO)ccc(c23)C1=O` [BNGT], the maximum absorption wavelength entry in data set [1] (pH 1.9 to 5.8, acetonitrile/water 1/1) is “around 420 nm”; in data set [1] (pH 1.9 to 5.8, acetonitrile/water 1/99) it was “around 432 nm”; in data set [1] (pH 1.9 to 5.8, acetonitrile/water 8/2), “around 422 nm”; in data set [1] (pH 6.0 to 12.0, acetonitrile/water 1/1), “around 535 nm”; in data set [1] (pH 6.0 to 12.0, acetonitrile/water 1/99), “about 527 nm”; in data set [1] (pH 6.0 to 12.0, acetonitrile/water 8/2) it was “around 537 nm”. Also, the “increase of absorbance at 535 nm” value in data set [1] (setting [5]) is recorded as “about 20 times”. Moreover, the “red shift of maximum absorption wavelength” value in data set [1] (setting [5]) came to 115 nm; in data set [1] (setting [6]) it was 95 nm; in data set [1] (setting [7]), 115 nm. In data set [1] (setting [6]), the “increase of absorbance at 527 nm” value is on record as “about 6 times”. In data set [1] (setting [7]), the “increase of absorbance at 537 nm” value is recorded as “about 28 times”. Moreover, in data set [2] (527 nm, 535 nm and 537 nm), the “effect of coexisting metal ions on absorbance” value was “did not change much”. Also, in data set [2] (BNGT 10 μM, three solvents), the “effect of coexisting metal ions on maximum absorption wavelength and color” value was “almost unchanged”. The “reversibility of response of absorbance to pH” value in data set [3] (527 nm, 535 nm and 537 nm) is “very good reversibility”. The “reversibility of response of maximum absorption wavelength and color to pH” value in data set [3] (three solvents) is reported as “good reversibility”. Also, in data set [4] (after pH adjusted to 6.0), the “stability of absorbance for the next 30 min” value is given as “remained basically stable”. In data set [4] (pH 5.8 adjusted to 6.0 with NaOH, 527 nm, 535 nm and 537 nm), the “time for absorbance to reach the maximum” value is on record as “about 2 min”. Moreover, the color change entry in data set [4] (pH changed from 5.8 to 6.0) is given as “colorless to red”.

The record behind these values is US11505530B2, “1,8-naphthalimide derivative, preparation method therefor and use thereof” (SOOCHOW UNIVERSITY, priority 2018, dated 2022).
